Where two headings read alike, the source gives them in different places.
Key:
[1] = test system: NSCLC cell lines HCC-827, H1975, PC-9 and H1781; assay: CellTiter-Glo cell viability in NSCLC cell lines; format: cell-based; conditions: 98-50000 nM, 3 days; HCC-827, H1975, PC-9, H1781
Procedure: The NSCLC cell lines HCC-827 (EGFR L858R), H1975 (EGFR L858R/T790M) PC-9 (EGFR Del E746_A750) and H1781 (HER2 G7776insV G/C) were treated with MPC-0767 at a concentration range of 98-50000 nM for 3 days, after which time cell viability was determined using CellTiter-Glo® reagent.

MOLM-14 cells (FLT3-ITD) = assay: CellTiter-Glo cell viability (single agent and combination); format: cell-based; conditions: 72 hours; for IC50: Homo sapiens, MOLM-14, 72 h, read-out: EC50 (cell viability)
Procedure: HS-5 is a human marrow stromal cell line that secretes various growth factors sufficient to support hematopoietic progenitor growth (Roecklein et al., Blood, 1995) which thus mimics stromal conditions.
Three cell lines which harbor FLT3-ITD were used for the drug combination studies (MV-4-11, MOLM-13, and MOLM-14).
Cells were treated with the drugs (single agent or combination) for 72 hours. Drug combination activity was determined by first measuring cell viability with CellTiter-Glo®, followed by the calculation of the EC50 corresponding to single agent activity, using the R DRC package (R Core Team, 2017). The combination index (CI) values were computed using the Chou-Talalay method (Chou T, Cancer Research., 2010 70(2): 440-6.), based on the viability of each drug alone and in combination, across all concentrations tested. In brief, CI was defined as: […]
Loss of function mutations of KDM6A are observed in FLT3-ITD AML (Garg et al., 2015 Blood 126 (22):2491-501). […] To therapeutically exploit this finding, we hypothesized that inhibiting EZH2, the histone H3K27 methyltransferase that functionally opposes KDM6A, would enhance sensitivity to MPC-0767. To test this hypothesis, a FLT3-ITD cell line (MV-4-11) was used and treated with either of the two clinical stage EZH2 inhibitors, EPZ-6438 and CPI-1205, at 8 different concentrations for 4 days. Following this time, cells were counted, reseeded and treated with 8 concentrations of EZH2 inhibitor alone, 8 concentrations of MPC-0767 alone, or the combination of the two (64 total combinations).

[2] = test system: cell surface FLT3 in MOLM-13 cells; assay: Cell surface FLT3 by flow cytometry; format: cell-based, human; conditions: 24 hours
Procedure: To determine whether MPC-0767 can promote the degradation of FLT3-ITD and abolish downstream signaling, MV-4-11 and MOLM-13 cells were treated with vehicle or MPC-0767 (1 μM) for 24 hours. Cells were harvested for flow cytometry to assess cell surface FLT3 protein abundance. In addition, the measurement of a key phosphorylation site of S6 (phospho-S6) was used as a marker for oncogenic FLT3-ITD signaling (Zimmerman et al., Blood. 2013 122(22): 3607-3615). Indeed, in both MV-4-11 and MOLM-13 cells treated with MPC-0767 there was a >65% reduction in cell surface FLT3 (FIGS. 10A and 10B, respectively) and >70% reduction in phospho-S6 (FIGS. 10C and 10D, respectively).
We next explored whether the synergistic activity of MPC-0767 and ATO was due to a more complete abrogation of FLT3-ITD oncogenic signaling. […] After this time cells were harvested for the assessment of cell surface FLT3 expression by flow cytometry. To additionally measure the effects of abrogating FLT3, we assessed phospho-ERK (pERK) and phospho-S6 (pS6), as these are two known downstream effectors.

[3] = test system: BaF3 cells harboring FLT3-ITD; assay: CellTiter-Glo cell viability; format: cell-based, murine; conditions: Mus musculus, 72 hours
Procedure: After this time cell viability was determined using CTG and EC50 values determined.
EC50 values were calculated using equation 1 (as described above).
BaF3 cells require the supplementation of IL-3 to activate the IL-3 receptor for growth. However, in BaF3 cells transfected with FLT3-ITD, cells no longer require IL3 as survival is solely driven by oncogenic FLT3 signaling.

TUR cells = assay: CellTiter-Glo cell viability (single agent and combination); format: cell-based; conditions: 72 h
OCIAML3 cells = assay: CellTiter-Glo cell viability; format: cell-based; conditions: OCIAML3, 72 h
OCI-AML2 AML cell line = assay: In vitro T-cell-mediated killing assay (active caspase-3); format: cell-based; conditions: MPC-0767 2 μM overnight, then pp65 enriched CD8+ T cells 4 hours
Procedure: The ability of MPC-0767 to increase T cell killing was determined in an in vitro T-cell-mediated killing assay. The OCI-AML2 AML cell line was labeled with the cell staining dye CFSE and treated overnight with MPC-0767 (2 μM) and human cytomegalovirus pp65495-503 peptide. […] After 4 hours of co-culture, cells were harvested, fixed, permeabilized, and stained for the active form of caspase-3 as a direct read-out of apoptotic cell death.
The CI is a quantitative measure used to determine whether the combined effect of a drug pair is synergistic, additive, or antagonistic. The CI is calculated as CI=(E1+E2)/E12, where E12 is a normalized biological response (e.g., % Caspase-3+ cells) for the combination of Drug A and Drug B, and E1 and E2 are the response measured for each single drug treatment, respectively. CI values less than 1 indicate synergy, with the magnitude of the effect indicated by how much less than 1 the synergy score is. A more detailed mathematical treatment of this relationship is described in Shin et al. 2018.

[4] = test system: MV-4-11 cell line (AML FLT3-ITD) xenograft; assay: Subcutaneous MV-4-11 xenograft study; conditions: oral, 200 mg/kg QD×2 days then 150 mg/kg QD×15 days
Procedure: Each mouse was inoculated subcutaneously in the right flank with 5×10^6 tumor cells in 0.1 ml PBS/Matrigel (1:1). When the mean tumor volume reached 91 mm^3 in size, mice were randomized into 2 groups of 10. […] Tumor measurements (caliper) were taken on the indicated days. […] Student t-test was used to evaluate the statistical significance of the difference between these groups P<0.0001.

Compound: C[C@H](N)C(=O)O[C@@H](C)C(=O)N1CCC(CCn2c(Sc3cc4c(cc3Br)OCO4)nc3c(N)ncnc32)CC1 [MPC-0767]
- EC50 (cell viability) [1]: within clinically achievable concentrations
- IC50 (MOLM-14 cells (FLT3-ITD); MOLM-14, non-stromal media): 423 nM
- IC50 (MOLM-14 cells (FLT3-ITD); MOLM-14, stromal media (HS-5 conditioned)): 627 nM
- viability of KDM6A sgRNA cells vs non-targeting sgRNA (MOLM-14 cells (FLT3-ITD); MOLM-14, MPC-0767 1 μM): conferred resistance to MPC-0767
- reduction in cell surface FLT3 ([2]; MOLM-13, 1 μM): > 65%
- FLT3 level (cell surface) ([2]; MOLM-13, MPC-0767 800 nM, ATO 625 nM or combination): reduced
- EC50 [3]: 497 nM
- EC50 (TUR cells): 550 nM
- MPC-0767 Sensitivity (TUR cells): Sensitive (cell lines having EC50 values below 1 μM were considered to be sensitive)
- EC50 (OCIAML3 cells; Homo sapiens, OCI-AML-3): 1810 nM
- MPC-0767 Sensitivity (OCIAML3 cells): Resistant (EC50 values above 1 μM considered resistant)
- Combination Index (CI) for apoptotic (active caspase-3+) cells (OCI-AML2 AML cell line): 0.53
- effect on body weight [4]: without significant effects on body weight
- tumor regression [4]: 84%
- complete tumor regression (animals) ([4]; n=10): 5/10 and Five

From patent publication US20200253979A1, “THERAPEUTIC METHODS RELATING TO HSP90 INHIBITORS” (AI Therapeutics, Inc., priority 2017, published 2020)
